Data on one substance can be found in patent publication US20040209956A1 (priority 2003, published 2004).

Common to all, as to type: physicochemical
Series [1] can be described thus: Solubility of Form II in acetonitrile/ethanol 3A mixtures. Particulars: equilibrated nineteen days; for Solubility, 70/30 ACN/EtOH 3A wt. % S-[2-[(1-Iminoethyl)amino]ethyl]-2-methyl-L-cysteine: 70/30 v/v acetonitrile/ethanol 3A; for Solubility, 90/10 ACN/EtOH 3A wt. % S-[2-[(1-Iminoethyl)amino]ethyl]-2-methyl-L-cysteine: 90/10 v/v acetonitrile/ethanol 3A. The text has this:
Excess solids were equilibrated in these solvents at the appropriate temperature (in a shaker bath) for nineteen days. Supernatant samples were withdrawn and analyzed by HPLC for concentration of S-[2-[(1-Iminoethyl)amino]ethyl]-2-methyl-L-cysteine.

A short description of series [2]: Solubility experiments in acetonitrile/water with and without excess maleic acid. Conditions: 90/10 acetonitrile/water with excess maleic acid; nineteen days at 5° C.; slurry in single liquid phase, solids form II. How it is done: These vials were then placed in a shaker bath at 5° C. After four days of equilibration when the vials were observed, it was discovered that the system had turned from a suspension of solids in a single liquid phase to a biphasic liquid with no suspended solids. Both layers from each of the three vials were analyzed for water content (through Karl-Fischer analysis) and concentration of the compound. […] It is worth pointing out though that the exact conditions leading to measured concentrations in the top layer could only be truly established when the partitioning of excess maleic acid is established between the two layers. The bottom layer (rich in water) would most likely be under-saturated since no excess solids remained. This possibility is substantiated by the solubility data on the bottom layer, where the concentrations are found to be very similar across all the experiments. While the vial at 70/30 acetonitrile/water with excess maleic acid remained biphasic even after nineteen days, the 70/30 acetonitrile/water vial without any excess maleic acid after five days had some very large crystals floating in a solution that still seemed biphasic. […] These crystals were used to obtain crystallography data. After nineteen days of equilibration at 5° C., the 90/10 acetonitrile/water vial with excess maleic acid had turned back into a slurry of solids in a single liquid phase.

Series [3] is described as follows: Moisture sorption of Form II by DVS moisture balance. Particulars: 25° C. The text has this:
However, the solids re-hydrate equally easily when exposed to R.H. greater than 10%. […] The behavior of form II during this experiment was typical of a highly crystalline channel hydrate/solvate.

Take “S-[2-[(1-Iminoethyl)amino]ethyl]-2-methyl-L-cysteine maleate crystalline salt Form II”: the entries for the “Solubility, 70/30 ACN/EtOH 3A wt. % S-[2-[(1-Iminoethyl)amino]ethyl]-2-methyl-L-cysteine” value in series [1] (5 ° C.) and in series [1] (25 ° C.) were 0.679 wt. % and 0.737 wt. %, respectively. Moreover, the results for the “Solubility, 90/10 ACN/EtOH 3A wt. % S-[2-[(1-Iminoethyl)amino]ethyl]-2-methyl-L-cysteine” value in series [1] (5 ° C.) and in series [1] (25 ° C.) were 0.169 wt. % and 0.135 wt. %, respectively. For the same substance, in series [2], the “Concentration in the solution phase, S-[2-[(1-Iminoethyl)amino]ethyl]-2-methyl-L-cysteine” value came out at 0.613 wt %. Moreover, in series [3] (DVS moisture balance), the “Cycling between sorption and de-sorption cycles” value was “did not show any hysteresis or loss of crystallinity”. Also, the Moisture gain is recorded as roughly 2.5% in series [3] (between 10 and 70% R.H.); roughly 4.5% in series [3] (between 70 and 90% R.H.).
